# Measurements as given in publication PMC5218480 (PLoS ONE, 2017).
# Test system: MV-4-11 cells
# Test: Gene expression microarray analysis (Affymetrix PrimeView) and GSEA
# Format: cell-based, human
# Set-up: RFU PODN (11730768_x_at) / Fold change /veh PODN (11730768_x_at) / RFU LINC00158 (11744669_a_at) / Fold change /veh LINC00158 (11744669_a_at) / RFU DUSP10 (11751237_a_at) / Fold change /veh DUSP10 (11751237_a_at) / RFU ID3 (11757404_x_at) / Fold change /veh ID3 (11757404_x_at) / RFU PLEKHG5 (11737974_s_at) / Fold change /veh PLEKHG5 (11737974_s_at) / RFU LRRC4B (11730491_at) / Fold change /veh LRRC4B (11730491_at) / RFU GIMAP4 (11747438_a_at) / Fold change /veh GIMAP4 (11747438_a_at) / RFU KRT8 (11758183_x_at) / Fold change /veh KRT8 (11758183_x_at) / RFU CNN1 (11734310_a_at) / Fold change /veh CNN1 (11734310_a_at) / RFU VPS37D (11726825_at) / Fold change /veh VPS37D (11726825_at) / RFU C10orf10 (11716522_x_at) / Fold change /veh C10orf10 (11716522_x_at) / RFU KIR2DL2 /// KIR2DL4 /// KIR2DL5A /// KIR2DL5B /// KIR2DS1 /// KIR2DS2 /// KIR2DS3 /// KIR2DS4 /// KIR3DL3 /// KIR3DL3 /// KIR3DS1 (11738374_at) / Fold change /veh KIR2DL2 /// KIR2DL4 /// KIR2DL5A /// KIR2DL5B /// KIR2DS1 /// KIR2DS2 /// KIR2DS3 /// KIR2DS4 /// KIR3DL3 /// KIR3DL3 /// KIR3DS1 (11738374_at) / RFU C1QL1 (11718748_at) / Fold change /veh C1QL1 (11718748_at) / RFU TMPRSS4 (11747572_a_at) / Fold change /veh TMPRSS4 (11747572_a_at) / RFU HAMP (11756126_x_at) / Fold change /veh HAMP (11756126_x_at) / RFU RNFT2 (11725882_a_at) / Fold change /veh RNFT2 (11725882_a_at) / RFU NR4A2 (11747474_a_at) / Fold change /veh NR4A2 (11747474_a_at) / RFU ABCC12 (11746883_a_at) / Fold change /veh ABCC12 (11746883_a_at) / RFU TMEM136 (11760407_x_at) / Fold change /veh TMEM136 (11760407_x_at) / RFU CLDN22 /// WWC2 (11732394_at) / Fold change /veh CLDN22 /// WWC2 (11732394_at) / RFU HLA-DPB1 (11760878_x_at) / Fold change /veh HLA-DPB1 (11760878_x_at) / RFU SPINT1 (11716480_a_at) / Fold change /veh SPINT1 (11716480_a_at) / RFU GAP43 (11754022_s_at) / Fold change /veh GAP43 (11754022_s_at) / RFU A4GNT (11735810_at) / Fold change /veh A4GNT (11735810_at) / RFU PRB3 (11715151_x_at) / Fold change /veh PRB3 (11715151_x_at) / RFU TUBB4B (11761932_at) / Fold change /veh TUBB4B (11761932_at) / RFU CAPN14 (11732068_a_at) / Fold change /veh CAPN14 (11732068_a_at) / RFU TMCC2 (11721928_a_at) / Fold change /veh TMCC2 (11721928_a_at) / RFU IRGQ (11745062_a_at) / Fold change /veh IRGQ (11745062_a_at) / RFU FAM174B (11720279_a_at) / Fold change /veh FAM174B (11720279_a_at) / RFU TMPRSS4 (11748680_a_at) / Fold change /veh TMPRSS4 (11748680_a_at) / RFU FAM212B (11763350_a_at) / Fold change /veh FAM212B (11763350_a_at) / RFU PLEKHG5 (11743358_a_at) / Fold change /veh PLEKHG5 (11743358_a_at) / RFU ZSCAN30 (11745921_a_at) / Fold change /veh ZSCAN30 (11745921_a_at) / RFU CMKLR1 (11741424_a_at) / Fold change /veh CMKLR1 (11741424_a_at) / RFU LOC101060620 /// MAPK8IP1 (11723275_at) / Fold change /veh LOC101060620 /// MAPK8IP1 (11723275_at) / RFU SPTSSB (11747773_x_at) / Fold change /veh SPTSSB (11747773_x_at) / RFU PRSS12 (11739890_at) / Fold change /veh PRSS12 (11739890_at) / RFU BIN1 (11741810_x_at) / Fold change /veh BIN1 (11741810_x_at) / RFU WNT11 (11732464_a_at) / Fold change /veh WNT11 (11732464_a_at) / RFU C10orf10 (11716521_a_at) / Fold change /veh C10orf10 (11716521_a_at) / RFU C5orf56 (11738089_at) / Fold change /veh C5orf56 (11738089_at) / RFU CYB561 (11721691_x_at) / Fold change /veh CYB561 (11721691_x_at) / RFU ANKRD19P (11752326_a_at) / Fold change /veh ANKRD19P (11752326_a_at) / RFU OR2T12 /// OR2T33 /// OR2T8 (11738714_s_at) / Fold change /veh OR2T12 /// OR2T33 /// OR2T8 (11738714_s_at) / RFU VCAN (11748164_a_at) / Fold change /veh VCAN (11748164_a_at) / RFU JSRP1 (11732532_at) / Fold change /veh JSRP1 (11732532_at) / RFU KRTAP10-11 (11738290_x_at) / Fold change /veh KRTAP10-11 (11738290_x_at) / RFU MYO3A (11730013_a_at) / Fold change /veh MYO3A (11730013_a_at) / RFU EBF3 (11725865_a_at) / Fold change /veh EBF3 (11725865_a_at) / RFU CAMK2N1 (11719241_x_at) / Fold change /veh CAMK2N1 (11719241_x_at) / RFU C5orf56 (11738088_a_at) / Fold change /veh C5orf56 (11738088_a_at) / RFU OLFML3 (11715873_a_at) / Fold change /veh OLFML3 (11715873_a_at) / RFU LOC100653217 /// NTM (11731650_a_at) / Fold change /veh LOC100653217 /// NTM (11731650_a_at) / RFU MAPK11 (11762145_a_at) / Fold change /veh MAPK11 (11762145_a_at) / RFU FIZ1 (11724087_x_at) / Fold change /veh FIZ1 (11724087_x_at) / RFU OASL (11726364_x_at) / Fold change /veh OASL (11726364_x_at) / RFU SOX15 (11748057_x_at) / Fold change /veh SOX15 (11748057_x_at) / RFU CD79A (11719716_a_at) / Fold change /veh CD79A (11719716_a_at) / RFU HIST1H1D (11736915_at) / Fold change /veh HIST1H1D (11736915_at) / RFU CASKIN2 (11723855_a_at) / Fold change /veh CASKIN2 (11723855_a_at) / RFU LOC730098 (11760151_x_at) / Fold change /veh LOC730098 (11760151_x_at) / RFU OR4N2 (11742367_at) / Fold change /veh OR4N2 (11742367_at) / RFU PRRT2 (11749266_a_at) / Fold change /veh PRRT2 (11749266_a_at) / RFU SNX32 (11753110_a_at) / Fold change /veh SNX32 (11753110_a_at) / RFU CDHR5 (11726645_a_at) / Fold change /veh CDHR5 (11726645_a_at) / RFU RCAN1 (11760418_a_at) / Fold change /veh RCAN1 (11760418_a_at) / RFU FAM167A (11723789_a_at) / Fold change /veh FAM167A (11723789_a_at) / RFU FAM26E (11764081_at) / Fold change /veh FAM26E (11764081_at) / RFU ISYNA1 (11749810_s_at) / Fold change /veh ISYNA1 (11749810_s_at) / RFU ACY1 (11761880_at) / Fold change /veh ACY1 (11761880_at) / RFU 11764098_at / Fold change /veh 11764098_at / RFU SAMD14 (11745864_x_at) / Fold change /veh SAMD14 (11745864_x_at) / RFU NPB (11741838_a_at) / Fold change /veh NPB (11741838_a_at) / RFU TMPRSS6 (11731388_a_at) / Fold change /veh TMPRSS6 (11731388_a_at) / RFU KRTAP10-2 (11738614_at) / Fold change /veh KRTAP10-2 (11738614_at) / RFU ARHGAP8 /// PRR5-ARHGAP8 (11727945_x_at) / Fold change /veh ARHGAP8 /// PRR5-ARHGAP8 (11727945_x_at) / RFU KRTAP5-7 /// NADSYN1 (11734609_at) / Fold change /veh KRTAP5-7 /// NADSYN1 (11734609_at) / RFU RASL12 (11751679_a_at) / Fold change /veh RASL12 (11751679_a_at) / RFU CDKN2B (11736163_a_at) / Fold change /veh CDKN2B (11736163_a_at) / RFU PRF1 (11729649_at) / Fold change /veh PRF1 (11729649_at) / RFU, ZNF638 /// ZNF638-IT1 / Fold change vs veh, ZNF638 /// ZNF638-IT1 / RFU, PANK3 / Fold change vs veh, PANK3 / RFU, SH3YL1 / Fold change vs veh, SH3YL1 / RFU, ZEB2 / Fold change vs veh, ZEB2 / RFU, NRIP1 / Fold change vs veh, NRIP1 / RFU, PTTG1IP / Fold change vs veh, PTTG1IP / RFU, CAPN2 / Fold change vs veh, CAPN2 / RFU, MED14 / Fold change vs veh, MED14 / RFU, SNORA58 / Fold change vs veh, SNORA58 / RFU, C1orf63 / Fold change vs veh, C1orf63 / RFU, LRRFIP1 / Fold change vs veh, LRRFIP1 / RFU, NDUFAF7 / Fold change vs veh, NDUFAF7 / RFU, SLC12A2 / Fold change vs veh, SLC12A2 / RFU, IBTK / Fold change vs veh, IBTK / RFU, ESF1 / Fold change vs veh, ESF1 / Fold change vs veh, TMEM50B / RFU, TAOK1 / Fold change vs veh, TAOK1 / RFU, ACBD3 / Fold change vs veh, ACBD3 / RFU, TMA16 / Fold change vs veh, TMA16 / RFU, RWDD3 / Fold change vs veh, RWDD3 / RFU, BCAT1 / Fold change vs veh, BCAT1 / RFU, EDEM3 / Fold change vs veh, EDEM3 / RFU, TMEM33 / Fold change vs veh, TMEM33 / RFU, WDR75 / Fold change vs veh, WDR75 / RFU, AHCTF1 / Fold change vs veh, AHCTF1 / RFU, TFRC / Fold change vs veh, TFRC / RFU, ZDHHC17 / Fold change vs veh, ZDHHC17 / RFU, NOM1 / Fold change vs veh, NOM1 / RFU, ARL8B / Fold change vs veh, ARL8B / RFU, ZBTB11 / Fold change vs veh, ZBTB11 / RFU, TAMM41 / Fold change vs veh, TAMM41 / RFU, KIAA1704 /// LOC100996395 / Fold change vs veh, KIAA1704 /// LOC100996395 / RFU, ING1 / Fold change vs veh, ING1 / RFU, TRMT61B / Fold change vs veh, TRMT61B / RFU, FUBP3 / Fold change vs veh, FUBP3 / RFU, TP53 / Fold change vs veh, TP53 / RFU, TNKS2 / Fold change vs veh, TNKS2 / RFU, ZFP14 / Fold change vs veh, ZFP14 / RFU, ACTR2 / Fold change vs veh, ACTR2 / RFU, PPP3R1 / Fold change vs veh, PPP3R1 / RFU, PIK3R1 / Fold change vs veh, PIK3R1 / RFU, HNRNPA1 / Fold change vs veh, HNRNPA1 / RFU, RNF170 / Fold change vs veh, RNF170 / RFU, ZNF28 / Fold change vs veh, ZNF28 / RFU, RNGTT / Fold change vs veh, RNGTT / RFU, OGT / Fold change vs veh, OGT / RFU, BRD1 / Fold change vs veh, BRD1 / RFU, MARS / Fold change vs veh, MARS / RFU, ZNF655 / Fold change vs veh, ZNF655 / RFU, FAHD1 / Fold change vs veh, FAHD1 / RFU, BDP1 / Fold change vs veh, BDP1 / RFU, LRRCC1 / Fold change vs veh, LRRCC1 / RFU, ARID1A / Fold change vs veh, ARID1A / RFU, ZNF146 / Fold change vs veh, ZNF146 / RFU, ZNF330 / Fold change vs veh, ZNF330 / RFU, GPN3 / Fold change vs veh, GPN3 / RFU, C9orf123 / Fold change vs veh, C9orf123 / RFU, N4BP2L2 / Fold change vs veh, N4BP2L2 / RFU, ARFIP1 / Fold change vs veh, ARFIP1 / RFU, FAM179B / Fold change vs veh, FAM179B / RFU, BCL10 / Fold change vs veh, BCL10 / RFU, UHRF1BP1L / Fold change vs veh, UHRF1BP1L / RFU, BET1 / Fold change vs veh, BET1 / RFU, CNOT2 / Fold change vs veh, CNOT2 / RFU, ZNF268 / Fold change vs veh, ZNF268 / Fold change vs veh, ZNF507 / RFU, DGCR2 / Fold change vs veh, DGCR2 / RFU, WDSUB1 / Fold change vs veh, WDSUB1 / Fold change vs veh, HSP90B1 /// MIR3652 / RFU, ADSS / Fold change vs veh, ADSS / RFU, GK / Fold change vs veh, GK / RFU, ZNF148 / Fold change vs veh, ZNF148 / RFU, TAF9 / Fold change vs veh, TAF9 / RFU, SLC1A5 / Fold change vs veh, SLC1A5 / RFU, SLMO2 / Fold change vs veh, SLMO2 / RFU, ABCC4 / Fold change vs veh, ABCC4 / RFU, LOC101060439 /// RAP1B / Fold change vs veh, LOC101060439 /// RAP1B / RFU, RFX7 / Fold change vs veh, RFX7 / RFU, GTPBP10 / Fold change vs veh, GTPBP10 / RFU, CNEP1R1 / Fold change vs veh, CNEP1R1 / RFU, BIVM-ERCC5 /// ERCC5 / Fold change vs veh, BIVM-ERCC5 /// ERCC5 / RFU, ILF3 / Fold change vs veh, ILF3 / RFU 11762660_at / Fold change /veh 11762660_at / RFU VCAN (11757783_s_at) / Fold change /veh VCAN (11757783_s_at) / RFU DDX43 (11728927_at) / Fold change /veh DDX43 (11728927_at) / RFU KRT8 (11758188_x_at) / Fold change /veh KRT8 (11758188_x_at) / RFU NKD1 (11759106_at) / Fold change /veh NKD1 (11759106_at) / RFU SRD5A1 (11742802_a_at) / Fold change /veh SRD5A1 (11742802_a_at) / RFU TPSAB1 /// TPSB2 (11721975_s_at) / Fold change /veh TPSAB1 /// TPSB2 (11721975_s_at) / RFU GSTM3 (11746129_a_at) / Fold change /veh GSTM3 (11746129_a_at) / RFU IL23R (11737362_x_at) / Fold change /veh IL23R (11737362_x_at) / RFU TMEM51 (11727254_a_at) / Fold change /veh TMEM51 (11727254_a_at) / RFU PIWIL2 (11732686_x_at) / Fold change /veh PIWIL2 (11732686_x_at) / RFU ORM1 (11744905_x_at) / Fold change /veh ORM1 (11744905_x_at) / RFU CCDC152 (11743942_at) / Fold change /veh CCDC152 (11743942_at) / RFU ECM1 (11717891_a_at) / Fold change /veh ECM1 (11717891_a_at) / RFU IL23R (11748794_a_at) / Fold change /veh IL23R (11748794_a_at) / RFU TNFAIP8L3 (11732012_x_at) / Fold change /veh TNFAIP8L3 (11732012_x_at) / RFU MBOAT4 (11741988_at) / Fold change /veh MBOAT4 (11741988_at) / RFU 11764193_at / Fold change /veh 11764193_at / RFU TMEM53 (11763286_at) / Fold change /veh TMEM53 (11763286_at) / RFU MAGEB2 (11727129_at) / Fold change /veh MAGEB2 (11727129_at) / RFU TMEM200A (11744735_a_at) / Fold change /veh TMEM200A (11744735_a_at) / RFU CCDC152 (11751479_a_at) / Fold change /veh CCDC152 (11751479_a_at) / RFU FAM211A (11726209_a_at) / Fold change /veh FAM211A (11726209_a_at) / RFU RGS16 (11746705_a_at) / Fold change /veh RGS16 (11746705_a_at) / RFU VCAN (11755009_s_at) / Fold change /veh VCAN (11755009_s_at) / RFU RHOB (11743442_s_at) / Fold change /veh RHOB (11743442_s_at) / RFU RGS16 (11720943_a_at) / Fold change /veh RGS16 (11720943_a_at) / RFU RGS16 (11720944_at) / Fold change /veh RGS16 (11720944_at) / RFU, VPS4B / Fold change vs veh, VPS4B / RFU, CREB1 / Fold change vs veh, CREB1 / RFU, DNAJC13 / Fold change vs veh, DNAJC13 / RFU, GNAQ / Fold change vs veh, GNAQ / RFU, CDK5R1 / Fold change vs veh, CDK5R1 / RFU, ZRANB3 / Fold change vs veh, ZRANB3 / RFU, CUL4A / Fold change vs veh, CUL4A / RFU, CCNY / Fold change vs veh, CCNY / RFU, UFL1 / Fold change vs veh, UFL1 / RFU, COG3 / Fold change vs veh, COG3 / RFU, DIAPH2 / Fold change vs veh, DIAPH2 / RFU, SKA2 / Fold change vs veh, SKA2 / RFU, AFF3 / Fold change vs veh, AFF3 / RFU, LMF1 / Fold change vs veh, LMF1 / RFU, IPO11 / Fold change vs veh, IPO11 / RFU, DFFB / Fold change vs veh, DFFB / RFU, FOXP1 / Fold change vs veh, FOXP1 / RFU, CARD8 / Fold change vs veh, CARD8 / RFU, STRN3 / Fold change vs veh, STRN3 / RFU, ADK / Fold change vs veh, ADK / RFU, RASSF2 / Fold change vs veh, RASSF2 / RFU, WIPF1 / Fold change vs veh, WIPF1 / RFU, LARP1B / Fold change vs veh, LARP1B / RFU, RASA1 / Fold change vs veh, RASA1 / RFU, RB1 / Fold change vs veh, RB1 / RFU, PPFIA1 / Fold change vs veh, PPFIA1 / RFU, MAT2A / Fold change vs veh, MAT2A / RFU, CCT5 / Fold change vs veh, CCT5 / RFU, WDR92 / Fold change vs veh, WDR92 / RFU, CUX1 / Fold change vs veh, CUX1 / RFU, TTC7A / Fold change vs veh, TTC7A / RFU, TMEM135 / Fold change vs veh, TMEM135 / RFU, DEPTOR / Fold change vs veh, DEPTOR / RFU, CPM / Fold change vs veh, CPM / RFU, DNAJB6 / Fold change vs veh, DNAJB6 / RFU, CACNA2D3 / Fold change vs veh, CACNA2D3 / RFU, DTX4 / Fold change vs veh, DTX4 / RFU, TFCP2 / Fold change vs veh, TFCP2 / RFU, GMCL1 /// GMCL1P1 / Fold change vs veh, GMCL1 /// GMCL1P1 / RFU, AEBP2 / Fold change vs veh, AEBP2 / RFU, SNHG1 /// SNORD22 /// SNORD25 /// SNORD26 /// SNORD27 /// SNORD28 /// SNORD29 /// SNORD31 / Fold change vs veh, SNHG1 /// SNORD22 /// SNORD25 /// SNORD26 /// SNORD27 /// SNORD28 /// SNORD29 /// SNORD31 / Fold change (Aza/veh), C12orf56 (ProbeSet 11735607_a_at) / Fold change (ACY-1035/veh), C12orf56 (ProbeSet 11735607_a_at) / Fold change (Aza/veh), FGFR1OP (ProbeSet 11751329_s_at) / Fold change (ACY-1035/veh), FGFR1OP (ProbeSet 11751329_s_at) / Fold change (Aza/veh), VPS36 (ProbeSet 11739960_a_at) / Fold change (ACY-1035/veh), VPS36 (ProbeSet 11739960_a_at) / RFU SYPL1 (11715823_x_at) / Fold change /veh SYPL1 (11715823_x_at) / RFU IGFBP7 (11715501_s_at) / Fold change /veh IGFBP7 (11715501_s_at) / RFU REEP3 (11722064_at) / Fold change /veh REEP3 (11722064_at) / RFU IGLL1 (11728026_x_at) / Fold change /veh IGLL1 (11728026_x_at): dose or concentration left out as unconfirmed
# Details: MV-4-11 cells, 48 hours
smiles,measurement,value
Nc1ccc(-c2cccs2)cc1NC(=O)c1ccc2c(c1)cc(C1CC1)n2CCN1CCOCC1 [ACY-1035],Fold change /veh SAMD14 (11745864_x_at),1.01
